Results published in BindingDB's records for PubMed 8996185 (SynthÉLabo Recherche, 1997).
Values joined by “and” are separate entries in the source; they are usually repeats but may differ in a detail not shown here. Identical values can stand only once. Counter-ions that a name gives are not always drawn.

Key:
[1] = biological target: Gamma-aminobutyric acid type B receptor subunit 1 (UniProt Q9Z0U4)
Adenosine receptor A2a = Adenosine receptor A2a (Rattus norvegicus, UniProt P30543)
Adenosine receptor A1 = biological target: T1, Adenosine receptor A1 (Rattus norvegicus, UniProt P25099)
T1 sequence (P25099 whole entry): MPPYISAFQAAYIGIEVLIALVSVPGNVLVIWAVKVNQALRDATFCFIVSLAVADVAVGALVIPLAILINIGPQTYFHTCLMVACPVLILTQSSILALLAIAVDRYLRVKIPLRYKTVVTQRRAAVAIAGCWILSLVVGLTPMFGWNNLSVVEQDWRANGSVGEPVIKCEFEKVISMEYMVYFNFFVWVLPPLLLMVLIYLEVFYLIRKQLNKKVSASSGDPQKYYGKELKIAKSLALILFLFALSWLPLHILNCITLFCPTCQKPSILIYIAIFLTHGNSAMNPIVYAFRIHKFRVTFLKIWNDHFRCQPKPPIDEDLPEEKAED

[2] = biological target: 5-hydroxytryptamine receptor 3A (Rattus norvegicus, UniProt P35563)
[3] = biological target: 5-hydroxytryptamine receptor 4 (Cavia porcellus, UniProt O70528)
[4] = biological target: T2, Type-1 angiotensin II receptor (Oryctolagus cuniculus, UniProt P34976)
T2 sequence (P34976 whole entry): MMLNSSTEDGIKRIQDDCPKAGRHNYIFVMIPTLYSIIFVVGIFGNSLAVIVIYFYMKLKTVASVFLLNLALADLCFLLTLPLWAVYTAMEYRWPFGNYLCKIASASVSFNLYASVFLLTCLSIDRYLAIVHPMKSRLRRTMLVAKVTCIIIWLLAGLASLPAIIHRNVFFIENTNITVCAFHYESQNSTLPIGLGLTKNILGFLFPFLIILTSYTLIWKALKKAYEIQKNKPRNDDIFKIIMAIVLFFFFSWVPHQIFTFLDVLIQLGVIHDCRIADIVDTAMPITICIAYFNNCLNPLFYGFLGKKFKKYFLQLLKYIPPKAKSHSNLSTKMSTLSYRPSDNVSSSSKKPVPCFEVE

[5] = biological target: T3, Type-2 angiotensin II receptor (Rattus norvegicus, UniProt P35351)
T3 sequence (P35351 whole entry): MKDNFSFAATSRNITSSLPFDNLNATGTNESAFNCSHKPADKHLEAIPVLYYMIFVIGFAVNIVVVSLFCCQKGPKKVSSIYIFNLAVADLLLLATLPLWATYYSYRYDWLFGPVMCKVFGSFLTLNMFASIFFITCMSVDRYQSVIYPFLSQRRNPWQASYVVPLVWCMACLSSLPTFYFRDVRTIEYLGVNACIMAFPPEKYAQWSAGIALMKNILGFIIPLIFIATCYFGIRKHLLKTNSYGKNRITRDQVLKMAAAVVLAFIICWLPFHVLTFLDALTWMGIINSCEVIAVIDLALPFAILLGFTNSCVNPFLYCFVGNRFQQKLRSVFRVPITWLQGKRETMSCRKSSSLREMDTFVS

Glutamate receptor 3 = Glutamate receptor 3 (Rattus norvegicus, UniProt P19492)
[6] = biological target: Glutamate receptor ionotropic, kainate 1 (Rattus norvegicus, UniProt P22756)
[7] = biological target: T4, Glycine amidinotransferase, mitochondrial (Rattus norvegicus, UniProt P50442)
T4 sequence (P50442 whole entry): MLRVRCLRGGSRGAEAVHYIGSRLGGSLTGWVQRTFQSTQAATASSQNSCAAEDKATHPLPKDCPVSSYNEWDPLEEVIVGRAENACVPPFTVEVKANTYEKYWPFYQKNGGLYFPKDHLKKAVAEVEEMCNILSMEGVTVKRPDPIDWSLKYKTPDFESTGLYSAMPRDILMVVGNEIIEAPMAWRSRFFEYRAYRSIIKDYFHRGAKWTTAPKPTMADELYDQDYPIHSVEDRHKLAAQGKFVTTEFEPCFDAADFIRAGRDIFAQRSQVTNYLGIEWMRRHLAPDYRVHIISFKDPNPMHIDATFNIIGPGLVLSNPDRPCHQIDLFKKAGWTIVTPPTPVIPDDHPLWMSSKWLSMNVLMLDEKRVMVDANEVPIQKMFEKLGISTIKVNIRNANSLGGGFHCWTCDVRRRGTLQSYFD

[8] = biological target: T5, Glycine receptor subunit alpha-1 (Rattus norvegicus, UniProt P07727)
T5 sequence (P07727 whole entry): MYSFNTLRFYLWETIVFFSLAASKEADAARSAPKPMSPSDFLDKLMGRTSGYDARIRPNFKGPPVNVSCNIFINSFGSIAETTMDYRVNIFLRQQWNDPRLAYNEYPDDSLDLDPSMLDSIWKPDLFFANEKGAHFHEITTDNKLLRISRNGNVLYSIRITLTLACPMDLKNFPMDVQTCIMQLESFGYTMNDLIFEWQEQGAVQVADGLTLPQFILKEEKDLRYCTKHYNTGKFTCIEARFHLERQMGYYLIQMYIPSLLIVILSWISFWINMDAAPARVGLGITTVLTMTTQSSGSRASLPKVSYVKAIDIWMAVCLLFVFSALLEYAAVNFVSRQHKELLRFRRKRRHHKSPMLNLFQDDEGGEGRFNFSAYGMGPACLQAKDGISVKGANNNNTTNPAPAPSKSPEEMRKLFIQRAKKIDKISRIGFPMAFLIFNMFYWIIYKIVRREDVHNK

Nischarin = Nischarin (Rattus norvegicus, UniProt Q4G017)
[9] = biological target: Beta-2 adrenergic receptor (Rattus norvegicus, UniProt P10608)
[10] = biological target: Voltage-dependent L-type calcium channel subunit alpha-1C (Rattus norvegicus, UniProt P22002)
D(3) dopamine receptor = D(3) dopamine receptor (Bos taurus, UniProt F1N454)
[11] = biological target: Glutamate receptor ionotropic, NMDA 1 (Rattus norvegicus, UniProt P35439)
[12] = biological target: Sigma non-opioid intracellular receptor 1 (Mus musculus, UniProt O55242)
[13] = biological target: 5-hydroxytryptamine receptor 2A (Rattus norvegicus, UniProt P14842)
[14] = biological target: Sodium-dependent dopamine transporter (Rattus norvegicus, UniProt P23977)
Histamine H1 receptor = Histamine H1 receptor (Cavia porcellus, UniProt P31389)
[15] = biological target: Gamma-aminobutyric acid (GABA) B receptor 1 (Rattus norvegicus, UniProt Q6MFX8)
[16] = biological target: 5-hydroxytryptamine receptor 1A (Rattus norvegicus, UniProt P19327)
[17] = biological target: Alpha-1B adrenergic receptor (Rattus norvegicus, UniProt P15823)
D(2) dopamine receptor = D(2) dopamine receptor (Rattus norvegicus, UniProt P61169)
[18] = biological target: 5-hydroxytryptamine 1D receptor (Bos taurus, UniProt Q8MI13)
[19] = biological target: 5-hydroxytryptamine receptor 1B (Rattus norvegicus, UniProt P28564)
[20] = biological target: Sodium channel protein type 10 subunit alpha (Rattus norvegicus, UniProt Q62968)
[21] = biological target: Gamma-aminobutyric acid receptor subunit alpha-1 (Rattus norvegicus, UniProt P62813)
[22] = biological target: 5-hydroxytryptamine receptor 2C (Sus scrofa, UniProt G7ZKZ7)
[23] = biological target: Alpha-2C adrenergic receptor (Rattus norvegicus, UniProt P22086)
[24] = biological target: Muscarinic acetylcholine receptor M2 (Rattus norvegicus, UniProt P10980)

Sequence of Glutamate receptor ionotropic, kainate 1 (P22756 whole entry): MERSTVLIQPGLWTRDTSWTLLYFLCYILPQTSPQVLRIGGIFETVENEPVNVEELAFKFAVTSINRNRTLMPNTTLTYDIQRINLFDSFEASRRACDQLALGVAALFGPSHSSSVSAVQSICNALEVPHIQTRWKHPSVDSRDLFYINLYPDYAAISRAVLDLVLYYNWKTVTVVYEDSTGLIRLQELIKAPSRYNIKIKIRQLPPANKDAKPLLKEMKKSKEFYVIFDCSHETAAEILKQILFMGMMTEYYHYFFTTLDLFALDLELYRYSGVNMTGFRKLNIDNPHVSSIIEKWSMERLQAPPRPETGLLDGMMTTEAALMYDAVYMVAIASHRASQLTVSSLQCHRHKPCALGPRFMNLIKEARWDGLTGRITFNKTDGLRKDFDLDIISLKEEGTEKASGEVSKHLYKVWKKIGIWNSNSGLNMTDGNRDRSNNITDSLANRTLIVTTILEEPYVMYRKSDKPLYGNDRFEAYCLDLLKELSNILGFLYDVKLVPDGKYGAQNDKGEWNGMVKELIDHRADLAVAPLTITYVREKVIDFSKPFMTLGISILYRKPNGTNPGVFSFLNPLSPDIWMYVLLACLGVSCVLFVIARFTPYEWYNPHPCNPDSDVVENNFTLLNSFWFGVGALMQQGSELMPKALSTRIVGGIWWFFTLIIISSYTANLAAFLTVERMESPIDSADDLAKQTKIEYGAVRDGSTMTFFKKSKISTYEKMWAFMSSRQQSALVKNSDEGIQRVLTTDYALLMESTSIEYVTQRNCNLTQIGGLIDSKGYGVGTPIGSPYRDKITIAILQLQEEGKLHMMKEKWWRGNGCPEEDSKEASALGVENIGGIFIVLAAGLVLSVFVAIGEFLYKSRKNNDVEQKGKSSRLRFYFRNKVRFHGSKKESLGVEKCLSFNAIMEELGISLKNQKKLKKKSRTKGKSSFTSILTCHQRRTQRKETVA
Sequence of 5-hydroxytryptamine receptor 4 (O70528 whole entry): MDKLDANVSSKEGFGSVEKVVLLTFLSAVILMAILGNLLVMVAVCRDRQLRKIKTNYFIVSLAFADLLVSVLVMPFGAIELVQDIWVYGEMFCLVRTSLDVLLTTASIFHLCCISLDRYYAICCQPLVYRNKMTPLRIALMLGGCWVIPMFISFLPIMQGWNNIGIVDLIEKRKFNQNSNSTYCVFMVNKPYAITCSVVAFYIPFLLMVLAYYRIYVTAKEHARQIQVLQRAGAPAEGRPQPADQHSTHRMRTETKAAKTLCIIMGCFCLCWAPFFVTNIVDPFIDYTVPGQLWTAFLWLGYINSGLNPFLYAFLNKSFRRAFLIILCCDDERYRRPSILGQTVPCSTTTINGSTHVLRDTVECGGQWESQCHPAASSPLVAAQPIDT
Sequence of Nischarin (Q4G017 whole entry): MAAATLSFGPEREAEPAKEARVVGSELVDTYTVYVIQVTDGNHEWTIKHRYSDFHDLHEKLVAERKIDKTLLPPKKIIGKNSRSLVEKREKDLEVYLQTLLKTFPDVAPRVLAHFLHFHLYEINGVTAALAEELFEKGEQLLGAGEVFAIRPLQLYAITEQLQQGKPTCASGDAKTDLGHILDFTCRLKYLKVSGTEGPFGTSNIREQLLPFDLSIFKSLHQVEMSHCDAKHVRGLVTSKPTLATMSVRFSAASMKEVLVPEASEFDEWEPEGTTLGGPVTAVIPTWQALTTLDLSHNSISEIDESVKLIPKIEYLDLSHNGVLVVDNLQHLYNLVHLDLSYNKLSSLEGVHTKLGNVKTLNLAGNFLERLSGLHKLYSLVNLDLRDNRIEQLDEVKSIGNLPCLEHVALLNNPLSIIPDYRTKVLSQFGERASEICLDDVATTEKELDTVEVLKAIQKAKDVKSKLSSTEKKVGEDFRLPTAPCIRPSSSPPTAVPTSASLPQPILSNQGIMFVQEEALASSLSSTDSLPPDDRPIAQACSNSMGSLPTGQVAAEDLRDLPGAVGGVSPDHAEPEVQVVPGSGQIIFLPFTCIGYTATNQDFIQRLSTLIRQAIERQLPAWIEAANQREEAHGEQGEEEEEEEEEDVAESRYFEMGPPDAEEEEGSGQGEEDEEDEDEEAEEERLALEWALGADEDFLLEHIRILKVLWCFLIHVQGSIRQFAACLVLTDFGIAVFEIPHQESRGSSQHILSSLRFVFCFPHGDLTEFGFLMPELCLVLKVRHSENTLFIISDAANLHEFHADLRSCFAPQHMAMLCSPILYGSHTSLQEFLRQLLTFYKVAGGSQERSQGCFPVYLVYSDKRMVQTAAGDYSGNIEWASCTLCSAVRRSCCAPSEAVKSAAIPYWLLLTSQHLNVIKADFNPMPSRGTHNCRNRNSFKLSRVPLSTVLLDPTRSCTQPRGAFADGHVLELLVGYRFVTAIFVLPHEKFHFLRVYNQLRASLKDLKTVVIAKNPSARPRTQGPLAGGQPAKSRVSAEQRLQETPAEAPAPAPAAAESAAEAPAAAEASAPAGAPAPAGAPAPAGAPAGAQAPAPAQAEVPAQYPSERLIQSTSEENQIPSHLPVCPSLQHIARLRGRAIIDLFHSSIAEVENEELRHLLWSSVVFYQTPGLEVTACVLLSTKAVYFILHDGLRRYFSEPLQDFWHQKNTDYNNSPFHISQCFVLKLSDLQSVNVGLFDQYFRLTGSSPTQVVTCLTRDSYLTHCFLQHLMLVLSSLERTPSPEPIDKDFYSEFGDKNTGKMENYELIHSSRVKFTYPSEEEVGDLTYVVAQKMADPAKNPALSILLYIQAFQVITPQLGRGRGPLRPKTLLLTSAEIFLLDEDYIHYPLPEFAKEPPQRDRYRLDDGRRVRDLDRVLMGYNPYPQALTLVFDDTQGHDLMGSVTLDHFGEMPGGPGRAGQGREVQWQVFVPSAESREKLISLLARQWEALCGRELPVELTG
Sequence of Glutamate receptor 3 (P19492 whole entry): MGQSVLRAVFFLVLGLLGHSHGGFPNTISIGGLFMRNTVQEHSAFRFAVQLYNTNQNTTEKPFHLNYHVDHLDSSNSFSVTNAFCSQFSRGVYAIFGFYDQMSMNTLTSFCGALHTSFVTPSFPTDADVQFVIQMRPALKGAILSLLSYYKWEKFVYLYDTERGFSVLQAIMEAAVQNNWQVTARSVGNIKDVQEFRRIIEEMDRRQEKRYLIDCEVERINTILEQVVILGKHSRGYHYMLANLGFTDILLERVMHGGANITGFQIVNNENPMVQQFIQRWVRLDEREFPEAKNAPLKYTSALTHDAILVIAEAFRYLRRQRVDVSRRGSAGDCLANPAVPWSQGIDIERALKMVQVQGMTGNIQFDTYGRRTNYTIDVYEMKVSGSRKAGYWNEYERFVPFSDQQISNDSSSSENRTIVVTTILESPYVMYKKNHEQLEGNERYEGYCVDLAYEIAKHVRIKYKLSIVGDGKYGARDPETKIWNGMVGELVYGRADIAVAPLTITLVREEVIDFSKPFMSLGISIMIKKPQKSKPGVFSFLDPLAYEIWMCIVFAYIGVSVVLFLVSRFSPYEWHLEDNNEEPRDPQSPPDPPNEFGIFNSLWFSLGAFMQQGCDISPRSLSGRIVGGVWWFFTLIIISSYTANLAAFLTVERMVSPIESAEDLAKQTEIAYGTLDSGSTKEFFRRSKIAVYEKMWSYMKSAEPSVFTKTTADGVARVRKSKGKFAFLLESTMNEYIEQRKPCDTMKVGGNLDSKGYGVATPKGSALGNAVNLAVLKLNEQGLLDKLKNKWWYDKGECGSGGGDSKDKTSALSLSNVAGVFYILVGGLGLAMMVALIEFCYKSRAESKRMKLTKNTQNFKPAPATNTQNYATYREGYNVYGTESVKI
Sequence of Beta-2 adrenergic receptor (P10608 whole entry): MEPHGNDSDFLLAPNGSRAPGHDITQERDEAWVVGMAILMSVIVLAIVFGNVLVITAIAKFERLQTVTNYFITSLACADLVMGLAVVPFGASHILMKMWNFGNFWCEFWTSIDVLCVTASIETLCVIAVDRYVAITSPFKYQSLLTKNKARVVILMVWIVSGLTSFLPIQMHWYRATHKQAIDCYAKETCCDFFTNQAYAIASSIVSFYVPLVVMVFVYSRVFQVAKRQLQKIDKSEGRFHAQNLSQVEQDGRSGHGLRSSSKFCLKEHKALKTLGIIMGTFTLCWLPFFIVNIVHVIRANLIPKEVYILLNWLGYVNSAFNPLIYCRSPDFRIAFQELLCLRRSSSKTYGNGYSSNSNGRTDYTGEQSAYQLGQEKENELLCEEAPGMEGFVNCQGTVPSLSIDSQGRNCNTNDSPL
Sequence of Adenosine receptor A2a (P30543 whole entry): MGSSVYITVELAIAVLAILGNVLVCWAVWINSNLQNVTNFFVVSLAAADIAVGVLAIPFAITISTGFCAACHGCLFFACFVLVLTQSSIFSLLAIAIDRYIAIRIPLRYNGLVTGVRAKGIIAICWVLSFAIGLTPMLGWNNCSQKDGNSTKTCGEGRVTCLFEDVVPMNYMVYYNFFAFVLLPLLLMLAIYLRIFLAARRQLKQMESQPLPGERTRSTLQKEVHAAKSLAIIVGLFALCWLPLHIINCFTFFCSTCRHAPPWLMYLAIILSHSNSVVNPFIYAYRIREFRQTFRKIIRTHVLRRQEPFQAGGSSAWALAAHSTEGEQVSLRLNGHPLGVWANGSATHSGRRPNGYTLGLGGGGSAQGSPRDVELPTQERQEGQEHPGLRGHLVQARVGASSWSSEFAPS
Sequence of 5-hydroxytryptamine receptor 3A (P35563 whole entry): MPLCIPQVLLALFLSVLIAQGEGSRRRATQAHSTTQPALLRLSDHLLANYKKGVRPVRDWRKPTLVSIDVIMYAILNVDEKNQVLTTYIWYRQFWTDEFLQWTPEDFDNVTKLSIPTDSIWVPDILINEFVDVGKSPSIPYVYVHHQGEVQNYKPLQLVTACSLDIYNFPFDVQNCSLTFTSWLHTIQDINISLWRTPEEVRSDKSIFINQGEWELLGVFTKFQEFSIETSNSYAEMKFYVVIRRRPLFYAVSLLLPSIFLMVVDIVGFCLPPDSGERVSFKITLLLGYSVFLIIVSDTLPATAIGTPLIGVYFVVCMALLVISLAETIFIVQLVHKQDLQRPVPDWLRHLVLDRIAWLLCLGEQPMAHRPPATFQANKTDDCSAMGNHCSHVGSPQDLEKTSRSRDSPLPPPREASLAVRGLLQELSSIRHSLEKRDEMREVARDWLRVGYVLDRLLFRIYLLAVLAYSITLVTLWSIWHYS

Ki [1] [µM]	Ki (Adenosine receptor A2a) [µM]	Ki (Adenosine receptor A1) [µM]	Ki [2] [µM]	Ki [3] [µM]	Ki [4] [µM]	Ki [5] [µM]	Ki (Glutamate receptor 3) [µM]	Ki [6] [µM]	Ki [7] [µM]	Ki [8] [µM]	Ki (Nischarin) [µM]	Ki [9] [µM]	Ki [10] [µM]	Ki (D(3) dopamine receptor) [µM]	Ki [11]	Ki [12] [µM]	SMILES	other results
> 10	> 10	> 10	> 10	> 10	> 10	> 10	> 10	> 10	> 10	> 10	> 10	> 10	–	–	–	–	O=C(CCCN1CCC(O)(c2ccc(Cl)cc2)CC1)c1ccc(F)cc1 [4-[4-(4-Chloro-phenyl)-4-hydroxy-piperidin-1-yl]-1-(4-fluoro-phenyl)-butan-1-one;propionate(HCl)]	–
> 10	> 10	> 10	–	> 10	> 10	> 10	> 10	> 10	> 10	> 10	> 10	> 10	> 10	0.88	> 10 µM and 5 µM	6.4	CN1CCN(C2=c3ccccc3=Nc3ccc(Cl)cc3N2)CC1 [6-chloro-10-(4-methylpiperazin-1-yl)-2,9-diazatricyclo[9.4.0.0^{3,8}]pentadeca-1,3(8),4,6,10,12,14-heptaene]	–
–	> 10	> 10	> 10	> 10	> 10	> 10	> 10	> 10	> 10	> 10	> 10	> 10	> 10	0.0029	> 10 µM	> 10	CCN1CCCC1CNC(=O)c1cc(S(=O)(=O)CC)c(N)cc1OC (centres undefined) [NSC_2159]	Ki [13]: 2 µM; Ki [14]: > 10 µM; Ki (Histamine H1 receptor): > 10 µM; Ki [15]: > 10 µM; Ki [16]: > 10 µM; Ki [17]: > 10 µM; Ki (D(2) dopamine receptor): 0.021 µM; Ki [18]: > 10 µM; Ki [19]: > 10 µM; Ki [20]: > 10 µM; Ki [21]: > 10 µM; Ki [22]: > 10 µM; Ki [23]: 1.6 µM; Ki [24]: > 10 µM
